Test results reported in ChEMBL document CHEMBL1201862, “PubChem BioAssay data set” (2004).
The source made the active and inactive calls.

Tests used:
Vero = experiment: cells; assay type: functional; conditions: Chlorocebus sabaeus
[1] = system: Streptococcus sp. 'group A'; experiment: growth inhibition of control SK(-) GAS strain, dose response, counter-screen for streptokinase expression inhibitor project, luminescence, kanamycin, BacTiterGlo, confirmation (AID 1900); assay type: functional, organism-based
Streptococcus = experiment: Group A Streptococcus viability loss, dose response, counter-screen for streptokinase expression inhibitor project, luminescence, BacTiterGlo (AID 1915); assay type: functional, organism-based;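 also: potency for reduction of bacterial viability or growth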
[2] = target: T1, Short transient receptor potential channel 4 (Mus musculus, UniProt Q9QUQ5); experiment: mouse TRPC4 channel inhibitors, dose response, cell-based, HEK293 TRPC4/mu-opioid, Fluo-4 calcium (AID 434942); assay type: functional;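 also: potency of inhibitors blocking the TRPC4 calcium response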
T1 sequence (Q9QUQ5 whole entry): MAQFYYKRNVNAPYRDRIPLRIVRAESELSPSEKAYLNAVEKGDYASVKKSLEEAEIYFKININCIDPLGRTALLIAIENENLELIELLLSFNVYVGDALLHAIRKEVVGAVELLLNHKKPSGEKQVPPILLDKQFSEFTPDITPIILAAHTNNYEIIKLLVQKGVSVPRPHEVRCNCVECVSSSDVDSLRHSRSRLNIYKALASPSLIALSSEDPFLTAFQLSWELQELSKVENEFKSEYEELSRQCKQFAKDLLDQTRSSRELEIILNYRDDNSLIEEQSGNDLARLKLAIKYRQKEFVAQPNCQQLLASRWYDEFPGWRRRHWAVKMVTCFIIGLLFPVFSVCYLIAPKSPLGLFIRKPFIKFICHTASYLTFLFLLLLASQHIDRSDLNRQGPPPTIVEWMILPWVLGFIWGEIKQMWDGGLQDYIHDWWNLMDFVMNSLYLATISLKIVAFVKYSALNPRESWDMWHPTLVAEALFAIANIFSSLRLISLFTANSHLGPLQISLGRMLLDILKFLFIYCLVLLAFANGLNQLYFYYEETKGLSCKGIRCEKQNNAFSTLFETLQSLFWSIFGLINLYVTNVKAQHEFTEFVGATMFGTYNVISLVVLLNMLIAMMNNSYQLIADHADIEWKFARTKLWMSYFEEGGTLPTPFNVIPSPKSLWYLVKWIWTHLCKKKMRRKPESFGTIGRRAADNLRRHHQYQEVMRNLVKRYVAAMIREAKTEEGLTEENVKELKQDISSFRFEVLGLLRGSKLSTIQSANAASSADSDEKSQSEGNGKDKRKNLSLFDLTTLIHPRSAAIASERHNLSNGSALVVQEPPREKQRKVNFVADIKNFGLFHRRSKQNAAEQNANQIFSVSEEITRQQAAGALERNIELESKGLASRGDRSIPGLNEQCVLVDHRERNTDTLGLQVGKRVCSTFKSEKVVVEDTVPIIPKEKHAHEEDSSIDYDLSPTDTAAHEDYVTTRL

Genome polyprotein = Genome polyprotein (dengue virus type 2, UniProt P29990); experiment: Dengue-2 NS5 methyltransferase inhibitors, primary screen, biochemical, confirmation dose response (AID 588689); assay type: functional
Fatty acid synthase [3] = target: T2, Fatty acid synthase (Homo sapiens, UniProt P49327); experiment: FAS thioesterase domain inhibitors, dose response, biochemical, endpoint fluorescence intensity, uHTS hits (AID 624327); assay type: functional;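 also: fluorescence from hydrolysis of an O-methyl fluorescein acyl ester substrate by the enzyme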
Fatty acid synthase [4] = target: T2, Fatty acid synthase; experiment: FAS thioesterase domain inhibitors, dose response, biochemical, kinetic fluorescence intensity (AID 624326); assay type: functional;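 also: rate of fluorescence rise from hydrolysis of a fluorogenic O-methyl fluorescein ester substrate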
[5] = HepG2 cell cytotoxicity, dose response, cytotoxicity control for non-replicating M. tuberculosis project (AID 489018); assay type: functional; conditions: Mycobacterium tuberculosis
[6] = THP-1 cell cytotoxicity, dose response, cytotoxicity control for non-replicating M. tuberculosis project (AID 489025); assay type: functional
cells = assay type: functional
[7] = Vero E6 cell cytotoxicity, dose response, cytotoxicity control for non-replicating M. tuberculosis project, secondary assay (AID 492998); assay type: functional, VeroE6; conditions: Vero C1008
Streptokinase A = target: T3, Streptokinase A (Streptococcus pyogenes serotype M1, UniProt P10520); experiment: S. pyogenes streptokinase expression inhibitors, potency, dose response, plasminogen activation absorbance, OD405 (AID 1914); assay type: functional, Streptococcus pyogenes M1 GAS;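 also: secreted streptokinase activity via plasminogen activation per viability signal from cell pellet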
T3 sequence (P10520 whole entry): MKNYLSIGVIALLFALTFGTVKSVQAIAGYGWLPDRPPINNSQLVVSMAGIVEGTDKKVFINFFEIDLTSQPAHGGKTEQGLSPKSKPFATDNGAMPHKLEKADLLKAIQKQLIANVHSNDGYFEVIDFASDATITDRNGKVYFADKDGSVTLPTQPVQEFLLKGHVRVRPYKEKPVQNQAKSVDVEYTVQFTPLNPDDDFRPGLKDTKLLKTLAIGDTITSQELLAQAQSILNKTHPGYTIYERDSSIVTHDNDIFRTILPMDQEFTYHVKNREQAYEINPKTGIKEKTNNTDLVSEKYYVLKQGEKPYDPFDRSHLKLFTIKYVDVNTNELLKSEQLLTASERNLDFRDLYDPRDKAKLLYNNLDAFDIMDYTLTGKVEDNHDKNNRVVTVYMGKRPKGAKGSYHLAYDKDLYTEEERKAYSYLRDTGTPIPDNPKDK

[8] = target: Heat shock protein HSP 90-alpha (Homo sapiens, UniProt P07900); assay type: functional, organism-based
[9] = target: FAD-linked sulfhydryl oxidase ALR (Homo sapiens, UniProt P55789); experiment: inhibitors of human ALR sulfhydryl oxidase, dose response, biochemical, H2O2 detection, luminescence, cherry-pick (AID 493248)
Cytochrome P450 2C9 = Cytochrome P450 2C9 (Homo sapiens, UniProt P11712)
Cytochrome P450 2C19 = Cytochrome P450 2C19 (Homo sapiens, UniProt P33261); experiment: Cytochrome panel assay with activity outcomes. Panel member name: p450-cyp2c19 Compounds with AC50 equal or less than 10 uM are considered active; assay type: functional; conditions: read-out: AC50
Cytochrome P450 3A4 = Cytochrome P450 3A4 (Homo sapiens, UniProt P08684);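 also: CYP3A4 tested as one member of a cytochrome P450 panel screen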
[10] = Luminescence Cell-Based Dose Retest to Confirm Inhibitors of Cancer Stem Cells. [Related pubchem assays (depositor defined):AID2717, AID2721]; assay type: functional; conditions: Homo sapiens

T2 sequence (P49327 whole entry, the tested form may be a part): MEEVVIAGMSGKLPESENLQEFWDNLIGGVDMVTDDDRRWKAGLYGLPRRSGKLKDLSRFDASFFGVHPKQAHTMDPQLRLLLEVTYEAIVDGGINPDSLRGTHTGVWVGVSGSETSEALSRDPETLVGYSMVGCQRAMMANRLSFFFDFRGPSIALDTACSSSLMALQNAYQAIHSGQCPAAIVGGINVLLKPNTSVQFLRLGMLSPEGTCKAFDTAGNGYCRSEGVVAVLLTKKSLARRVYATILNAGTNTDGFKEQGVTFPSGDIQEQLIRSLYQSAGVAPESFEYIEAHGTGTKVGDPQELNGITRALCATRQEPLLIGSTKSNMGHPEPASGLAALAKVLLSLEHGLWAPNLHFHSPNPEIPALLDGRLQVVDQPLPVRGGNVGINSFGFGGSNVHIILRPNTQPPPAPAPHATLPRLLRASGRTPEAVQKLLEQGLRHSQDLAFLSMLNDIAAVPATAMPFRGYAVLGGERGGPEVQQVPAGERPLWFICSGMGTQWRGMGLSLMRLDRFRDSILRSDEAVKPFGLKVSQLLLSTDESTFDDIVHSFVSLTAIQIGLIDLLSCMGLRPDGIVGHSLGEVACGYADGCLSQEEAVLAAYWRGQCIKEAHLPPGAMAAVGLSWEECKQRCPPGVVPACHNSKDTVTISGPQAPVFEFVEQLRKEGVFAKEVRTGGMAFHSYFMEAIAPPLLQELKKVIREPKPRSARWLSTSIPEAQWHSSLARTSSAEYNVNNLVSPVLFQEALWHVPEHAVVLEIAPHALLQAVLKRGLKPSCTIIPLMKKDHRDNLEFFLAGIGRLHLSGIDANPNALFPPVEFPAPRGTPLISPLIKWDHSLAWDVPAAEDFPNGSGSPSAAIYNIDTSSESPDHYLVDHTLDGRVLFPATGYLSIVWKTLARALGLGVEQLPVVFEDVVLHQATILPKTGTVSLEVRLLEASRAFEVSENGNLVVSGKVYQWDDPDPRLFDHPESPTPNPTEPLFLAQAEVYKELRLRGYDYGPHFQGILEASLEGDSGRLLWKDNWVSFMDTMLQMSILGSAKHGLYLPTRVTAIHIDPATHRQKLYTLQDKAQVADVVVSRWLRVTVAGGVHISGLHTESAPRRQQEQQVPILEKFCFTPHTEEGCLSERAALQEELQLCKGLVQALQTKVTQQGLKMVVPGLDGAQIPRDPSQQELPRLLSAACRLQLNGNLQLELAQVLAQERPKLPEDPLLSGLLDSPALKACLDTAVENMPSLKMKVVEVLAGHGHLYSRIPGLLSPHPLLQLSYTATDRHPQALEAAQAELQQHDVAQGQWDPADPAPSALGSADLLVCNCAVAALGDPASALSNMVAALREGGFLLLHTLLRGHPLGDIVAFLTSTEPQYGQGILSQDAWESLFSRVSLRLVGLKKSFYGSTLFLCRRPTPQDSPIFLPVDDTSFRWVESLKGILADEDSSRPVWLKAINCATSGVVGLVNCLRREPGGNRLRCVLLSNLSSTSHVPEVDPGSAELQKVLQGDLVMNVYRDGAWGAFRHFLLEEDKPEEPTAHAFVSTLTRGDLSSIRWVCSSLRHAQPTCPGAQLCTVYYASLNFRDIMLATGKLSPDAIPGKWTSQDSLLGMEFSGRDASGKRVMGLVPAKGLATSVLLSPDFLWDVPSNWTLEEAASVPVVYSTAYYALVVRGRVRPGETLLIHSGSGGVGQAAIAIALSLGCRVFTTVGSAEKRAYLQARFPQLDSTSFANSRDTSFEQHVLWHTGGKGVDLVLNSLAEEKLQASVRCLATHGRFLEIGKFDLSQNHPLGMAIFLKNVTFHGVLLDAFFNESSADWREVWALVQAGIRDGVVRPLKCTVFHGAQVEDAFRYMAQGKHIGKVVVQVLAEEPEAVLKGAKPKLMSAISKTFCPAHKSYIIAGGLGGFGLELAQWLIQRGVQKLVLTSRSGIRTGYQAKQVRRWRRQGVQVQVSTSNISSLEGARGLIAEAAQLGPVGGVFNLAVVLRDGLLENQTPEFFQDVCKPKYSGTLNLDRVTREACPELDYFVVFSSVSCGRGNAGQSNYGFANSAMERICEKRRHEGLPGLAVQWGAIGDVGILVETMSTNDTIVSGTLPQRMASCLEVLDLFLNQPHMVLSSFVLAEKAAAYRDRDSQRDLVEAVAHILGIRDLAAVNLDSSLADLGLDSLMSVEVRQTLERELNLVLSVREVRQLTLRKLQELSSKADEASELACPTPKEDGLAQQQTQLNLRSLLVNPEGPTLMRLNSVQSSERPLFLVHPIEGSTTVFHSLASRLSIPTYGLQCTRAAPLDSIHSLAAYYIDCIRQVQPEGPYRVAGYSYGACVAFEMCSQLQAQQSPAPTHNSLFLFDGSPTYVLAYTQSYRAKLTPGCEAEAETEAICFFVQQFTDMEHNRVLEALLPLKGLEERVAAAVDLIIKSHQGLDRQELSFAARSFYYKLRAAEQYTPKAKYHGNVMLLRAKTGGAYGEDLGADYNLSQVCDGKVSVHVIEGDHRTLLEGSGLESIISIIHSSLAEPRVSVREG
Chain of Genome polyprotein (P29990 2492-3391 limits assumed): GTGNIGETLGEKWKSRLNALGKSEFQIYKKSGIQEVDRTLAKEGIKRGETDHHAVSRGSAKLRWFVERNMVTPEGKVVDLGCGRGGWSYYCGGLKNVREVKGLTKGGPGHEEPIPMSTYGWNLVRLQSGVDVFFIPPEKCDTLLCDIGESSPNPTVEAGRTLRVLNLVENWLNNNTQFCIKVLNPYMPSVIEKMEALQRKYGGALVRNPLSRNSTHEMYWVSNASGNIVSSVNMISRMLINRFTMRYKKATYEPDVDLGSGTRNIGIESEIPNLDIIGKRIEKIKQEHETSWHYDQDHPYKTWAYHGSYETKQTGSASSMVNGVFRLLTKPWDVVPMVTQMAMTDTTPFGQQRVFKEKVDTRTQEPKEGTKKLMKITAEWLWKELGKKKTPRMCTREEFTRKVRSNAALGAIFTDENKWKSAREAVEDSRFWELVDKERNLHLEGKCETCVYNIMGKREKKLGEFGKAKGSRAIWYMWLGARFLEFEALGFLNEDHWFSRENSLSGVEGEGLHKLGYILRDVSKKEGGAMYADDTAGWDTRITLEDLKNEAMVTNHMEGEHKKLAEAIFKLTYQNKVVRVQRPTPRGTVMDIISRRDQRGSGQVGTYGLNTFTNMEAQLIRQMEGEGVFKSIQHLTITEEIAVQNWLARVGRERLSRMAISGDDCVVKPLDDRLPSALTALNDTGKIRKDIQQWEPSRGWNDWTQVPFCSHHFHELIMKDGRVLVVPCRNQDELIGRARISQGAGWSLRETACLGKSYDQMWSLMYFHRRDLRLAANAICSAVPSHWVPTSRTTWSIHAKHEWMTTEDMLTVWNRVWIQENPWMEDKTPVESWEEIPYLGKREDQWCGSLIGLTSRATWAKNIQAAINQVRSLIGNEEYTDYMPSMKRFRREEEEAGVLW
Chain of FAD-linked sulfhydryl oxidase ALR (P55789 whole entry): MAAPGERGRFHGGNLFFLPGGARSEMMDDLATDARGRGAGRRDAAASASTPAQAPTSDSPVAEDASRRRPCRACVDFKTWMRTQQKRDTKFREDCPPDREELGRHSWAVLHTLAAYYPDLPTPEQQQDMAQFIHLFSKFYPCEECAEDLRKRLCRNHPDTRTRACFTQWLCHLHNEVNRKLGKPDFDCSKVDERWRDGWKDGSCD
Chain of Cytochrome P450 2C9 (P11712 whole entry): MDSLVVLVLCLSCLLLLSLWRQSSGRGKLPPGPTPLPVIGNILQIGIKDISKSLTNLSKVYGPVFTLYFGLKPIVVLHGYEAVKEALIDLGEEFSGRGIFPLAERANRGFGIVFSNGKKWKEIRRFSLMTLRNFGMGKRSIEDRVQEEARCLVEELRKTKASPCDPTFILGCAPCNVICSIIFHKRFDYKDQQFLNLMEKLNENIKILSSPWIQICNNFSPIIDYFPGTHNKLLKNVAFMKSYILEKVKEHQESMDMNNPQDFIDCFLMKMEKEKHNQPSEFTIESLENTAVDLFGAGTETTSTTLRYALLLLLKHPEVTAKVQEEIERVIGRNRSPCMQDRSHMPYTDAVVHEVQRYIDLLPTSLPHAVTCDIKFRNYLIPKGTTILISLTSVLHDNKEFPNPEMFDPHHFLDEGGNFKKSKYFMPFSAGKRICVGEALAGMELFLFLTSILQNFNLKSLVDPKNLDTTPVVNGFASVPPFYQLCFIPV
Chain of Cytochrome P450 3A4 (P08684 whole entry): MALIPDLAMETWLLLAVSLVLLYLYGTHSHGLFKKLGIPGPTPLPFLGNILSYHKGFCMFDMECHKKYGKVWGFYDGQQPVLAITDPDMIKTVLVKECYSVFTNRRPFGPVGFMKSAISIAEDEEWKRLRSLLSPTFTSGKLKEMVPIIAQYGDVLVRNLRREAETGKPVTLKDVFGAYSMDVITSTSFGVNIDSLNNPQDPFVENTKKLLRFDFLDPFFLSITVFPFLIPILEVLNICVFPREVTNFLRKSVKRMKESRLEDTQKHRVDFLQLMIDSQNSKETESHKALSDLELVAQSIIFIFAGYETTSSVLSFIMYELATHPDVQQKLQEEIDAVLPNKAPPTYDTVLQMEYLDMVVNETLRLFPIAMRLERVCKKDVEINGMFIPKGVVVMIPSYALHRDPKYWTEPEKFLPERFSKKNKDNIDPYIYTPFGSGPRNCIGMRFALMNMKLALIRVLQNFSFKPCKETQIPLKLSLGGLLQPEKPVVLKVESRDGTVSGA
Chain of Cytochrome P450 2C19 (P33261 whole entry): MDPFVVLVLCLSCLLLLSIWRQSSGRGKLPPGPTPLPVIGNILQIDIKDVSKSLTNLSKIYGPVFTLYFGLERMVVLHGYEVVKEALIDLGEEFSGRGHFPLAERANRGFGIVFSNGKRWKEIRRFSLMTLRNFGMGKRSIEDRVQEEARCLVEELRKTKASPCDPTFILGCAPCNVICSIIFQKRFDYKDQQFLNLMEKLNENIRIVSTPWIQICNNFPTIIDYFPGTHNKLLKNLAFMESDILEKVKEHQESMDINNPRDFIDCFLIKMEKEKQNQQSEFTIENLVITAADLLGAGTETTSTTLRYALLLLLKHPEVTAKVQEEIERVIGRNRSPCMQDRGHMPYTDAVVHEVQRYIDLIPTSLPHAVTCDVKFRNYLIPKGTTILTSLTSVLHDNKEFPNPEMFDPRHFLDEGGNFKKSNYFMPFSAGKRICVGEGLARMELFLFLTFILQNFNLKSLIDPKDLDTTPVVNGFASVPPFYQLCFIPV

Question: Which results are given for `Cc1ccc(OCC(=O)NNC(=S)NC(=O)c2ccc(Br)o2)c(C)c1`?
Answer: CC50 (Vero): > 25 µM (active); EC50 [1]: < 0.06 µM (active); EC50 (Streptococcus): 1.33 µM (active); EC50 [2]: 13.3 µM (active)

Question: With `O=C1Nc2ccc(F)cc2C12Nc1ccccc1-c1nnc(SCc3ccccc3)nc1O2` (centres undefined) as the compound, how does the IC50 (Genome polyprotein) read?
Answer: The IC50 was 46.2 µM (active).

Question: What does the source list for `O=C(CC1C[C@H](C(=O)N2CCOCC2)[C@@]2(CCC3CCCC3)c3[nH]c4ccccc4c3CCN2C1=O)NCCC1=CCCCC1` (some centres undefined)?
Answer: IC50 (Fatty acid synthase [3]): 22.2 µM (inactive); IC50 (Fatty acid synthase [4]): 35.1 µM (inactive)

Question: For `Oc1c2c(nc3c(-c4ccc(Cl)cc4)cnn13)CCC2`, which EC50 [1] is on record?
Answer: The EC50 was 4.33 µM (active).

Question: And the CC50 [5]?
Answer: Its CC50 is 12.7 µM (active).

Question: And the CC50 [6]?
Answer: The CC50 was 5.23 µM (active).

Question: And the EC50 (Streptococcus)?
Answer: Its EC50 is 12.3 µM (active).

Question: What about the IC50 (cells) of the same compound?
Answer: Its IC50 is 12.2 µM (active).

Question: What about the CC50 [7] of the same compound?
Answer: Its CC50 is 10.7 µM (active).

Question: And the EC50 (Streptokinase A)?
Answer: Its EC50 is > 150 µM (not active).

Question: For `O=C(COC(=O)CC1CC2CCC1C2)Nc1cc([N+](=O)[O-])ccc1F` (centres undefined), which IC50 (Fatty acid synthase [3]) is on record?
Answer: Its IC50 is 4.15 µM (active).

Question: And the IC50 (Fatty acid synthase [4])?
Answer: Its IC50 is 3.72 µM (active).

Question: What does the source list for `Cc1cccc(-c2cc3nc(C)c(C)c(NCCCn4ccnc4)n3n2)c1`?
Answer: CC50 [5]: 16.4 µM (active); CC50 [6]: 20.6 µM (active); IC50 (cells): 9.68 µM (active); CC50 [7]: > 20 µM (active)

Question: For `COc1ccc(C(=O)Oc2c(CN3CCOCC3)cc(Cl)c3cccnc23)cc1OC`, which CC50 [5] is on record?
Answer: Its CC50 is 15 µM (active).

Question: What about the CC50 [6] of the same compound?
Answer: Its CC50 is 12.2 µM (active).

Question: And the IC50 (cells)?
Answer: The IC50 was 34.6 µM (active).

Question: What about the CC50 [7] of the same compound?
Answer: The CC50 was 8.82 µM (active).

Question: What does the source list for `O=C(CCC(=O)Nc1cccc(Cl)c1)N/N=C/c1cc([N+](=O)[O-])ccc1O`?
Answer: IC50 (Fatty acid synthase [3]): 4.21 µM (active); IC50 (Fatty acid synthase [4]): 5.71 µM (active)

Question: Which IC50 (Genome polyprotein) does the source give for `COc1ccccc1N1C(=O)NC(=O)/C(=C/c2ccc3c(c2)Cc2ccccc2-3)C1=O` here?
Answer: Its IC50 is 59.4 µM (active).

Question: With `COc1ccc(S(=O)(=O)NC2CC3CCC2C3)cc1Br` (centres undefined) as the compound, how does the AC50 [8] read?
Answer: Its AC50 is 5.25 µM (active).

Question: With `CN1C(=O)/C(=C/c2cccc([N+](=O)[O-])c2)C(=O)N1c1ccccc1` as the compound, how does the IC50 (Genome polyprotein) read?
Answer: The IC50 was 26.3 µM (active).

Question: And the AC50 [9]?
Answer: The AC50 was 0.533 µM (active).

Question: Which EC50 [1] does the source give for `Cn1ncc2c(Nc3cccc(Cl)c3)nc(Nc3cccc(Cl)c3)nc21` here?
Answer: Its EC50 is 2.68 µM (active).

Question: And the AC50 (Cytochrome P450 2C9)?
Answer: Its AC50 is 7.94 µM (inconclusive).

Question: And the EC50 (Streptococcus)?
Answer: The EC50 was 2.92 µM (active).

Question: And the AC50 [8]?
Answer: Its AC50 is 4.31 µM (active).

Question: And the AC50 (Cytochrome P450 2C19)?
Answer: Its AC50 is 3.16 µM (inconclusive).

Question: And the AC50 (Cytochrome P450 3A4)?
Answer: Its AC50 is 6.31 µM (inconclusive).

Question: What about the AC50 [10] of the same compound?
Answer: Its AC50 is 2.88 µM (active).

Question: For `Cc1ccc(C(=O)CN(CCC(=O)O)S(=O)(=O)c2ccc([N+](=O)[O-])cc2)cc1`, which IC50 (Fatty acid synthase [3]) is on record?
Answer: Its IC50 is 5.88 µM (active).

Question: And the IC50 (Fatty acid synthase [4])?
Answer: The IC50 was 3.55 µM (active).
